Patent US11578074B2, “Nitrogenous heterocyclic compound, preparation method, intermediate, composition, and application” (SHANGHAI PHARMACEUTICALS HOLDING CO., LTD., priority 2017, dated 2023)
Read-outs that look alike come from different tables or passages of the source.

What was measured:
[1] = tested on: HER2 overexpressing human gastric cancer NCI-N87 nude mice xenograft; test: HER2 overexpressing human gastric cancer NCI-N87 nude mice xenograft model; type: in vivo; conditions: 10 mg/kg, continuous oral administration for 21 days
Excerpt: We have established nude mice xenograft model for HER2 overexpression.

[2] = In vivo pharmacokinetics study in beagle dogs; conditions: beagle dogs, oral 15 mg/kg
Experimental: 6 male beagle dogs (purchased from Beijing Marshall Biotechnology Co., Ltd., certificate No. SCXK (Beijing) 2016-0001) were divided into 2 groups with 3 dogs in each group, and all of the animals were fasted for about 12 hours before administration. One group was orally administrated with 15 mg/kg of the final product of Embodiment 22 (deionized water was added, followed by sonication for 29 minutes and stirring for 4 minutes, and a clear pale yellow dosing solution with a concentration of 3 mg/mL was prepared); the other group was orally administrated with 15 mg/kg of Pyrotinib (deionized water was added, followed by sonication for 28 minutes and stirring for 5 minutes, and a clear yellow dosing solution with a concentration of 3 mg/mL was prepared). Blood samples were collected before administration and at 15, 30, 60, 90, 120, 150, 180, 240, 360, 480, 720 and 1440 minutes respectively after administration.
(§1) 1.0 mL of blood was collected from each animal through jugular vein puncture at each time point and heparin sodium was used for anticoagulation. The blood samples were collected and placed in labeled centrifuge tubes, and plasma was centrifuged (centrifugation conditions: 3500 rpm, 10 minutes, 2-8° C.). To 50 μL of plasma sample was added 300 μL of acetonitrile containing internal standard (Propranolol, 25 ng/mL) to precipitate the protain. After vortexing for 10 minutes and centrifuging at 6000 g for 20 minutes, 100 μL of supernatant was taken and injected into a 96-well plate. The drug concentration in plasma was determined by UPLC/MS-MS.

CYP1A2 = target: T1, CYP1A2 (Homo sapiens, UniProt P05177); test: Direct inhibition (DI) of CYP1A2 in human liver microsomes; type: in vitro ADME; conditions: probe Phenacetin, human liver microsomes 0.2 mg/mL, 10 μM compound, read-out: Direct inhibition (DI) 1A2 (Phenacetin)
T1 construct: A system of 100 μL human liver microsomes; from tissue; host or cells: human liver microsomes
T1 sequence (P05177 1-516): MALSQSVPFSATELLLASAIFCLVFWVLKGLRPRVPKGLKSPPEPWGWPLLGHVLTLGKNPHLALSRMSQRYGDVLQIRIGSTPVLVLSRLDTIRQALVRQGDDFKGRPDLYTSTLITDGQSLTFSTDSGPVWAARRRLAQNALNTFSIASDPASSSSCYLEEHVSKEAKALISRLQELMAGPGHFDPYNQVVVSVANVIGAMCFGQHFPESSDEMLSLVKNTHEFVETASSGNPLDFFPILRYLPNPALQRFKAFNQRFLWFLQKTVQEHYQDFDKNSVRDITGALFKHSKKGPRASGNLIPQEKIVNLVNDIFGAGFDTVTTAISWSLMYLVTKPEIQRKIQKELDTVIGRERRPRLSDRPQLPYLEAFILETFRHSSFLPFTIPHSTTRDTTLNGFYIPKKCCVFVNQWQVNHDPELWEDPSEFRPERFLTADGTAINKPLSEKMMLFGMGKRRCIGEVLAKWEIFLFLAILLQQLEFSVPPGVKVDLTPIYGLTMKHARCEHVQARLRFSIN
How it was run: (§2)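 Pooled human liver microsomes (0.2 mg/mL) with 1 mM NADPH and 10 μM test compound were incubated for 20 min with a mixed probe-substrate cocktail (midazolam 10 μM, testosterone 100 μM, dextromethorphan 10 μM, diclofenac 20 μM, phenacetin 100 μM, mephenytoin 100 μM). Relative enzyme activity came from metabolite formation versus DMSO control.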

CYP2C19 = target: T2, CYP2C19 (Homo sapiens, UniProt P33261); test: Direct inhibition (DI) of CYP2C19 in human liver microsomes; type: in vitro ADME; conditions: probe Mephenytoin, human liver microsomes 0.2 mg/mL, 10 μM compound, read-out: Direct inhibition (DI) 2C19 (Mephenytoin)
T2 construct: A system of 100 μL human liver microsomes; from tissue; host or cells: human liver microsomes
T2 sequence (P33261 whole entry): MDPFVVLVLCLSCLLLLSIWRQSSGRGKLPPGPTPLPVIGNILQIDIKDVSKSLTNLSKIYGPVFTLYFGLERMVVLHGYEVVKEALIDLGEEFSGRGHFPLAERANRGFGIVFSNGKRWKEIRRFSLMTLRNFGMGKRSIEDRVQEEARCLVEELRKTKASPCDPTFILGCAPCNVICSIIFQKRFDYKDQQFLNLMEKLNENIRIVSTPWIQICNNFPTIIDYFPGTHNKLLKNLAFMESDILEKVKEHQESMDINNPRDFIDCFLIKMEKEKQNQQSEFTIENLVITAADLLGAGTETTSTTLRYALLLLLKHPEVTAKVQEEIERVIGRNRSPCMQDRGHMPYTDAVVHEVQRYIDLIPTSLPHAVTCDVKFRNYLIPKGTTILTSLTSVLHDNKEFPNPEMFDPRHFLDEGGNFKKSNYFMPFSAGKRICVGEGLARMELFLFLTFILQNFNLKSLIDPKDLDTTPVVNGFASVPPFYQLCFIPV
How it was run: as §2

CYP3A4 = target: T3, CYP3A4 (Homo sapiens, UniProt P08684); test: Direct inhibition (DI) of CYP3A4 in human liver microsomes; type: in vitro ADME; conditions: human liver microsomes 0.2 mg/mL, 10 μM compound
T3 construct: A system of 100 μL human liver microsomes; from tissue; host or cells: human liver microsomes
T3 sequence (P08684 whole entry): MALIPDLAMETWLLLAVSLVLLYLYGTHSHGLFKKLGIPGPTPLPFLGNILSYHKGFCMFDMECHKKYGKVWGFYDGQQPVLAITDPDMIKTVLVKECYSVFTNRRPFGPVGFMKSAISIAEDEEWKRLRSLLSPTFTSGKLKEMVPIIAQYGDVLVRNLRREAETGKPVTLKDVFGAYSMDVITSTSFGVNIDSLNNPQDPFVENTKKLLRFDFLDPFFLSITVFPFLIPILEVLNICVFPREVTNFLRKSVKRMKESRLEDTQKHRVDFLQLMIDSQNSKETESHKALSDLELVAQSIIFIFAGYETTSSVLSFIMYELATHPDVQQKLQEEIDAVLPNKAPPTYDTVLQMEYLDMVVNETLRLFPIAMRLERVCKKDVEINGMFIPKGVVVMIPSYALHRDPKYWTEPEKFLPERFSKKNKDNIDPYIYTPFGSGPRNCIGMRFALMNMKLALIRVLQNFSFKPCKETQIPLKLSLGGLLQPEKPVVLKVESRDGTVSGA
How it was run: as §2

[3] = In vivo pharmacokinetics study in cynomolgus monkeys; conditions: cynomolgus monkeys, oral 15 mg/kg
Experimental: 6 male cynomolgus monkeys (purchased from Guangxi Guidong Primate Development Experiment Co., Ltd., certificate No. SCXK (Guangxi) 2013-0057) were divided into 2 groups with 3 in each group, and all of the animals were fasted for about 12 hours before administration. One group was orally administrated with 15 mg/kg of the final product of Embodiment 22 (deionized water was added, followed by sonication for 30 minutes and stirring for 3 minutes, and a clear pale yellow dosing solution with a concentration of 3 mg/mL was prepared); one group was administrated with 15 mg/kg of Pyrotinib (deionized water was added, followed by sonication for 30 minutes and stirring for 4 minutes, and a clear yellow dosing solution with a concentration of 3 mg/mL was prepared). Blood samples were collected before administration and at 15, 30, 60, 90, 120, 150, 180, 240, 360, 480, 720 and 1440 minutes respectively after administration.
as §1

CYP2D6 = target: T4, CYP2D6 (Homo sapiens, UniProt P10635); test: Direct inhibition (DI) of CYP2D6 in human liver microsomes; type: in vitro ADME; conditions: probe Dextromethorphan, human liver microsomes 0.2 mg/mL, 10 μM compound, read-out: Direct inhibition (DI) 2D6 (Dextromethorphan)
T4 construct: A system of 100 μL human liver microsomes; from tissue; host or cells: human liver microsomes
T4 sequence (P10635 whole entry): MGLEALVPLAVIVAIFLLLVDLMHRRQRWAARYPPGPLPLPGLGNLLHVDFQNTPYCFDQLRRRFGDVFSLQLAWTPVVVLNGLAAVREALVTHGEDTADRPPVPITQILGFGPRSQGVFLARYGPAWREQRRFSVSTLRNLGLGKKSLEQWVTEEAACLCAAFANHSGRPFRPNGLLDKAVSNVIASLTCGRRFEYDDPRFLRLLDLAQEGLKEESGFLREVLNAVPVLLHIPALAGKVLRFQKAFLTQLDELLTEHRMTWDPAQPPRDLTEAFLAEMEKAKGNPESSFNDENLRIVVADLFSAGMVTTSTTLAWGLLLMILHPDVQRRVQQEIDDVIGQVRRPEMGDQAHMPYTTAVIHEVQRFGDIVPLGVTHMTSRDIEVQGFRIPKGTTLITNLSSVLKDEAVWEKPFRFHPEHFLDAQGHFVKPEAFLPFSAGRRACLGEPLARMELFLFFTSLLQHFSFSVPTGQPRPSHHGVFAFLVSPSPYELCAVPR
How it was run: as §2

CYP2C9 = target: T5, CYP2C9 (Homo sapiens, UniProt P11712); test: Direct inhibition (DI) of CYP2C9 in human liver microsomes; type: in vitro ADME; conditions: probe Diclofenac, human liver microsomes 0.2 mg/mL, 10 μM compound, read-out: Direct inhibition (DI) 2C9 (Diclofenac)
T5 construct: A system of 100 μL human liver microsomes; from tissue; host or cells: human liver microsomes
T5 sequence (P11712 whole entry): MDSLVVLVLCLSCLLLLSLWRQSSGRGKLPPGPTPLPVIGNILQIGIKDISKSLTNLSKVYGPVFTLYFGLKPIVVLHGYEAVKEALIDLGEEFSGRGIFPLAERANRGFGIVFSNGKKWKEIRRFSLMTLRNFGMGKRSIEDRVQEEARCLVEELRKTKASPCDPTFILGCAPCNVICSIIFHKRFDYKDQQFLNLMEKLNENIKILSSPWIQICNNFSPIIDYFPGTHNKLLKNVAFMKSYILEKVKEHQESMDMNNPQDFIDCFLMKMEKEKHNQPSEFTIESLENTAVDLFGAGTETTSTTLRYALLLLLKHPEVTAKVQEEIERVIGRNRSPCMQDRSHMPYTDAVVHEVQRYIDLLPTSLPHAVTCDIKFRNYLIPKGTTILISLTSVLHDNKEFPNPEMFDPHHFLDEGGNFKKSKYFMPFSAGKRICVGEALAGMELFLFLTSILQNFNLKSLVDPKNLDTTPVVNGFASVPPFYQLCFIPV
How it was run: as §2

With `CCOc1cc2ncc(C#N)c(Nc3ccc(OCc4ccccn4)c(Cl)c3)c2cc1NC(=O)/C=C/[C@H]1CCCN1C` [Pyrotinib, reference compound] the “tumor volume inhibition rate (GI %)” value [1] was 127.0%, the “peak oral absorption concentration” value [2] was 146.2 ng/mL and the AUC ([2]; male, dog, plasma, read-out: AUC) was 1620 ng·h/mL. For the same compound, the inhibition at 20 min, 10 µM (CYP1A2) was 22%, the inhibition at 20 min, 10 µM (CYP2C19) was 43% and the inhibition at 20 min, 10 µM (CYP3A4; probe Midazolam, read-out: Direct inhibition (DI) 3A4 (Midazolam)) was 15%. The inhibition at 20 min, 10 µM (CYP3A4; probe Testosterone, read-out: Direct inhibition (DI) 3A4 (testosterone)) was 22%, the “oral absorption peak concentration” value [3] was 56.42 ng/mL and the AUC ([3]; male, cynomolgus monkey, plasma, read-out: AUC) was 325 ng·h/mL. For the same compound, the inhibition at 20 min, 10 µM (CYP2D6) was 55% and the inhibition at 20 min, 10 µM (CYP2C9) was 26%.
